From patent US20220193076A1, “METHODS OF TREATING BREAST CANCER WITH TUCATINIB” (Seagen Inc., priority 2019, published 2022)

Key:
CYP3A4 = CYP3A4 (Homo sapiens, UniProt P08684); test: Example 2 Part D: effect of tucatinib on PK of substrate probe midazolam; settings: steady-state tucatinib in combination with tolbutamide/midazolam vs tolbutamide/midazolam alone
Experimental: (§1) A Phase 1, open-label, fixed-sequence, 5-part, drug-drug interaction study of tucatinib was conducted to evaluate the effects of CYP3A4 and CYP2C8 inhibition and induction on the pharmacokinetics of tucatinib and to evaluate the effects of tucatinib on the pharmacokinetics of substrates of CYP3A4, CYP2C8, CYP2C9, and P-glycoprotein in healthy male and female subjects.
(§2) Part B evaluates the effect of rifampin, a strong inducer of CYP3A4 and CYP2C8, on the PK of tucatinib. […] Part E evaluates the effect of tucatinib on the PK of a substrate probe of the transporter P-gp (digoxin). […] For Parts A, B, and C, tucatinib is given as a single oral dose because evaluating plasma exposures after a single dose of tucatinib is expected to provide an appropriate assessment of the impact of the probe drugs on tucatinib PK. In Parts D and E, tucatinib is given as a multiple-dosing regimen in order to examine its effects on probe drugs at steady state, at which maximal inhibition of CYP2C8, CYP2C9, CYP3A4, and P-gp by tucatinib should be achieved.
(§3) Secondary objectives of the study included: (1) assessing the safety and tolerability of tucatinib when administered alone and when co-administered with substrate probes of CYP2C8, CYP2C9, and CYP3A4; and (2) assessing the single-dose PK of tucatinib and assessing the multiple-dose, steady-state PK of tucatinib alone and in the presence of substrate probes of CYP2C8, CYP2C9, and CYP3A4 in healthy subjects.
(§4) They were discharged on Day 14 after completion of the in-patient assessments.
(§5) On Day 1, each subject received a single oral dose of 0.5 mg of repaglinide. […] From Day 4 to Day 13, each subject received oral doses of 300 mg of tucatinib, twice daily (BID). On Day 11, each subject received a single oral dose of repaglinide. […] Tucatinib was provided as 150-mg tablets (2 tablets for the 300-mg dose), repaglinide was provided as 0.5-mg tablets, olbutamide was provided as 500-mg tablets, and midazolam was provided as a syrup (2 mg/mL; 1 mL syrup for the 2-mg dose). Tucatinib, repaglinide, olbutamide and midazolam were administered before meals preceded by an at least 8-hour overnight fast.
(§6) Other noncompartmental PK parameters may be reported. Additionally, blood samples for determination of plasma concentrations of tucatinib and ONT-993 were collected at the time points indicated in FIG. 8. […] A single genotyping blood sample was collected to assess possible effect of CYP polymorphisms or other genetic polymorphisms on the magnitude of drug interactions of tucatinib with probe drugs and substrates.

CYP2C9 = CYP2C9 (Homo sapiens, UniProt P11712); test: Example 2 Part D: effect of tucatinib on PK of substrate probe tolbutamide; settings: tolbutamide/midazolam in combination with steady-state tucatinib vs tolbutamide/midazolam alone
Experimental: as §1, §2, §3, §4
as §5, with “Tucatinib, repaglinide, olbutamide and midazolam were administered before meals preceded by an at least 8-hour overnight fast.” left out

P-gp = P-gp (Homo sapiens, UniProt P08183); test: Example 2 Part E: effect of tucatinib on PK of substrate probe digoxin; settings: digoxin in combination with steady-state tucatinib vs digoxin alone
Experimental: as §1, §2
A single genotyping blood sample was collected to assess possible effect of CYP polymorphisms or other genetic polymorphisms on the magnitude of drug interactions of tucatinib with probe drugs and substrates.

[1] = Example 1: renal function (iohexol aGFR, serum creatinine, urine albumin); type: in vivo, human
MATE1/2K [2] = test: Phase 1 drug-drug interaction study: effect of tucatinib on metformin pharmacokinetics (Example 1)
MATE1/2K [3] = test: clinical; settings: both, human, plasma
CYP2C8 = target: T1, CYP2C8 (Homo sapiens, UniProt P10632); test: Example 2 Part D: effect of tucatinib on PK of substrate probe repaglinide; type: in vivo; parameters: endogenous in cells; host or cells: healthy human subjects, in vivo; settings: repaglinide in combination with steady-state tucatinib vs repaglinide alone
T1 sequence (P10632 1-490): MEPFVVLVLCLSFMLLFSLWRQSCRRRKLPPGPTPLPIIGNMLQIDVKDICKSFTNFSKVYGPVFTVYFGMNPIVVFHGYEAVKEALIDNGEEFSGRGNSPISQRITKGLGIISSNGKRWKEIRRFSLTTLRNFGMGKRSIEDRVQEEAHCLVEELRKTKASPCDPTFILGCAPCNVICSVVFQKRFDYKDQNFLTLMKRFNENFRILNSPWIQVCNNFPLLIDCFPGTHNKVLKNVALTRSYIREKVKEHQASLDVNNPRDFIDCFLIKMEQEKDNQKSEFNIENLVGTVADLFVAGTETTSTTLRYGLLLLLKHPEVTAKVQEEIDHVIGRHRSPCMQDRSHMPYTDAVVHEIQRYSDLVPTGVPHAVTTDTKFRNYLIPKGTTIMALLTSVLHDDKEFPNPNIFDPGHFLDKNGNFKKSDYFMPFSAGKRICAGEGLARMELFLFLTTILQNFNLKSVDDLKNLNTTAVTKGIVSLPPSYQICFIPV
Experimental: as §1, §2, §3, §4, §5, §6

[4] = coadministration of tucatinib with metformin compared to metformin alone
[5] = Metformin with tucatinib (Test), n = 17

Chain of P-gp (P08183 whole entry): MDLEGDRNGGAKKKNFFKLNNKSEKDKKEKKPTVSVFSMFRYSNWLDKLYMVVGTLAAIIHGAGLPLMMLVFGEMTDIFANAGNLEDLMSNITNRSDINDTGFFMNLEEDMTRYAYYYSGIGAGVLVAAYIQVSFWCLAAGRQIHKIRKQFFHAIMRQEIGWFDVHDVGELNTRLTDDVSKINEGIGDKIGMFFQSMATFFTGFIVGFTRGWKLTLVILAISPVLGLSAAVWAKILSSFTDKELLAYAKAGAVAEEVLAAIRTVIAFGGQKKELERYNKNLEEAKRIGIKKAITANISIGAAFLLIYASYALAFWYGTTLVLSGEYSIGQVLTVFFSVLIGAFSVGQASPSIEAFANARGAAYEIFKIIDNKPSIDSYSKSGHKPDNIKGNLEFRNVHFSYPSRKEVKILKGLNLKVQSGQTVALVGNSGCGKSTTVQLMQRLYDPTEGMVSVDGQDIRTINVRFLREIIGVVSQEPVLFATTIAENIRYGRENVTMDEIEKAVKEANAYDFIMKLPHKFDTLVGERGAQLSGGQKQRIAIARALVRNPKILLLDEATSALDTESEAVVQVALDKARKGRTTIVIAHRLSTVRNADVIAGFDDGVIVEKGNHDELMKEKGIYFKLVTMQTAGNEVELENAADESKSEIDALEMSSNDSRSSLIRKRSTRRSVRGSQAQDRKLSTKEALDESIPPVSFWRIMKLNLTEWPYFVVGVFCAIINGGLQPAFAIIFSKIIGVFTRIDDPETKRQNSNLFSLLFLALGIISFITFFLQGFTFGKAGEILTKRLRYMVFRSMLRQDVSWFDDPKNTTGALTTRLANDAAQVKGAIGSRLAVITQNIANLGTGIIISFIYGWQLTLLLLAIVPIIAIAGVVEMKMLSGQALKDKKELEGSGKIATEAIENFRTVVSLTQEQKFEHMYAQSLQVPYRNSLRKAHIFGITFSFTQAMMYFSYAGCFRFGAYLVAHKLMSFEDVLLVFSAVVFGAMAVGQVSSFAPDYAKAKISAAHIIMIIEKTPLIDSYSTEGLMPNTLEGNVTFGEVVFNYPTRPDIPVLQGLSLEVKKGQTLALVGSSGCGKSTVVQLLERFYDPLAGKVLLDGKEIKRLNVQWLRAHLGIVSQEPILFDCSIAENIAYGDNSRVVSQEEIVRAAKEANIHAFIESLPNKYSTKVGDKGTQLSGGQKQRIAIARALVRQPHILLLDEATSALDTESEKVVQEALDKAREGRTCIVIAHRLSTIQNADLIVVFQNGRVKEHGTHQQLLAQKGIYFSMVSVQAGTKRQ
Chain of CYP3A4 (P08684 whole entry): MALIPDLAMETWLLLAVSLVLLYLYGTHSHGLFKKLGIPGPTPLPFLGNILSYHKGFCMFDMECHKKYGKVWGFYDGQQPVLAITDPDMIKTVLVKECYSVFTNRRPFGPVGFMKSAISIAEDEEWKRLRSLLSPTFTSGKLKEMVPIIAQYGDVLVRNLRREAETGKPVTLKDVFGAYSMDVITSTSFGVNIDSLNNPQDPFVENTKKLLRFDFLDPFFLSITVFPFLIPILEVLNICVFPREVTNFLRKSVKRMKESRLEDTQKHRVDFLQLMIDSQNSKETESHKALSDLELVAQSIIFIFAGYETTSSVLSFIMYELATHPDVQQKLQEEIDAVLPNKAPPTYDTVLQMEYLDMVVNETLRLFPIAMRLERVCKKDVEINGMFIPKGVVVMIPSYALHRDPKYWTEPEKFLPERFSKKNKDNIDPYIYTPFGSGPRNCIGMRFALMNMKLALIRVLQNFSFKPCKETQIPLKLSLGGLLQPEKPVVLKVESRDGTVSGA
Chain of CYP2C9 (P11712 whole entry): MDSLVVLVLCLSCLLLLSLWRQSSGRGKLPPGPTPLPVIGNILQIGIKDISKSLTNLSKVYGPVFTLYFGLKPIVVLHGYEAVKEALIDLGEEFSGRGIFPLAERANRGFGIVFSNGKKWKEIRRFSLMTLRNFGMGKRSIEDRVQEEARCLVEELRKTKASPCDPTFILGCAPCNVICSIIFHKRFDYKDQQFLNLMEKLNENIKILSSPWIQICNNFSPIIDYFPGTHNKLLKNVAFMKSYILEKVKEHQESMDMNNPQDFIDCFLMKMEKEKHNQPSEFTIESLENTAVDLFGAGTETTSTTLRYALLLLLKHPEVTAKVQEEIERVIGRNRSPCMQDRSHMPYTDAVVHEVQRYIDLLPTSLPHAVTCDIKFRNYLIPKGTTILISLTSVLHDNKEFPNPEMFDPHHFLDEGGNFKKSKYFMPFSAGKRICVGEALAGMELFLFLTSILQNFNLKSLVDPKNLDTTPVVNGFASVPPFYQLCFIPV

## OCc1ncc2n1-c1ccc(Cl)cc1C(c1ccccc1F)=NC2 [1-hydroxymidazolam]
CYP3A4
  Geometric LS mean ratio (90% CI), AUC0-∞: 1.02 (0.903, 1.16)
  Geometric LS mean ratio (90% CI), AUClast: 0.945 (0.848, 1.05)
  Geometric LS mean ratio (90% CI), Cmax: 0.593 (0.507, 0.694)
  Geometric mean MRAUC0-∞, decreased by: approximately 82.8%
  Geometric mean MRCmax, decreased by: ~80.4%

## CCCCNC(=O)NS(=O)(=O)c1ccc(CO)cc1 [4-hydroxytolbutamide]
CYP2C9
  Geometric LS mean ratio (90% CI), AUC0-∞: 0.918 (0.880, 0.958)
  Geometric LS mean ratio (90% CI), AUClast: 0.900 (0.868, 0.934)
  Geometric LS mean ratio (90% CI), Cmax: 0.881 (0.831, 0.934)

## C[C@H]1O[C@@H](O[C@H]2[C@@H](O)C[C@H](O[C@H]3[C@@H](O)C[C@H](O[C@H]4CC[C@@]5(C)[C@H](CC[C@@H]6[C@@H]5C[C@@H](O)[C@]5(C)[C@@H](C7=CC(=O)OC7)CC[C@]65O)C4)O[C@@H]3C)O[C@@H]2C)C[C@H](O)[C@@H]1O [digoxin]
P-gp
  Geometric LS mean ratio (90% CI), AUC0-∞: 1.46 (1.29, 1.66)
  Geometric LS mean ratio (90% CI), AUClast: 1.53 (1.35, 1.74)
  Geometric LS mean ratio (90% CI), Cmax: 2.35 (1.90, 2.90)

## CC(=O)N(CC(O)CO)c1c(I)c(C(=O)NCC(O)CO)c(I)c(C(=O)NCC(O)CO)c1I (stereo not shown) [iohexol, reference compound]
[1]; [4]
  Mean iohexol PK parameters: similar
[1]; metformin alone
  aGFR estimated using the Jødal and Brøchner Mortensen equation (iohexol): 94.99 mL/min/1.73 m^2
[1]; metformin plus tucatinib
  aGFR estimated using the Jødal and Brøchner Mortensen equation (iohexol): 94.56 mL/min/1.73 m^2

## CN(C)C(=N)N=C(N)N [metformin]
MATE1/2K [2]; Metformin + tucatinib 300 mg bid at steady state, Day 8, N = 17
  Plasma metformin CL/F, arithmetic mean (CV %): 77.4 L/h
MATE1/2K [2]; Metformin + tucatinib 300 mg bid at steady state, Day 8, N = 17, listed as Metformin
  Plasma metformin CL/F, arithmetic mean (CV %): 77.4 (34.9) L/h
MATE1/2K [2]; Metformin alone, 850 mg oral, Day 1, N = 17
  Plasma metformin CL/F, arithmetic mean (CV %): 105.4 L/h
MATE1/2K [2]; Metformin alone, 850 mg oral, Day 1, N = 17, listed as Metformin
  Plasma metformin CL/F, arithmetic mean (CV %): 105.4 (26.7) L/h
MATE1/2K [2]; [5]
  AUC0-last, geometric least-squares (LS) mean: 11054 ng·h/mL
  Cmax, geometric least-squares (LS) mean: 1418 ng/mL
MATE1/2K [2]; [4]
  Increase of arithmetic mean metformin AUC0-inf: 1.409 fold
  Increase of arithmetic mean metformin AUC0-last: 1.376 fold
  Increase of arithmetic mean metformin Cmax: 1.102 fold
MATE1/2K [3]; oral
  AUC: 11600 ng·h/mL
MATE1/2K [3]; oral, 850 mg
  AUC: 8330 ng·h/mL
  AUC(0-t): 8150 ng·h/mL
  Cmax: 1310 ng/mL
MATE1/2K [3]; po, 850 mg
  AUC(0-inf): 8610 ng·h/mL
  AUC(0-t): 8420 ng·h/mL
  Cmax: 1330 ng/mL
  Vd/F: 695 L

## Cc1ncc2n1-c1ccc(Cl)cc1C(c1ccccc1F)=NC2 [midazolam]
CYP3A4
  Geometric LS mean ratio (90% CI), AUC0-∞: 5.74 (5.05, 6.53)
  Geometric LS mean ratio (90% CI), AUClast: 5.30 (4.65, 6.04)
  Geometric LS mean ratio (90% CI), Cmax: 3.01 (2.63, 3.45)

## CCOc1cc(CC(=O)N[C@@H](CC(C)C)c2ccccc2N2CCCCC2)ccc1C(=O)O [repaglinide]
CYP2C8
  Geometric LS mean ratio (90% CI), AUC0-∞: 1.69 (1.51, 1.90)
  Geometric LS mean ratio (90% CI), AUClast: 1.72 (1.55, 1.91)
  Geometric LS mean ratio (90% CI), Cmax: 1.69 (1.37, 2.10)
